# From patent US20220265646A1, “PIEZO AGONISTS FOR PREVENTING OR REVERTING ABNORMAL AMYLOID DEPOSITION” (ITÄ-SUOMEN YLIOPISTO, priority 2019, published 2022)
# Experiments:
# [1] = tested on: Balb-c mice subjected to pMCAo; assay: Permanent middle cerebral artery occlusion (pMCAo) ischemic stroke model: MRI lesion size and adhesive removal test; format: in vivo, mouse; settings: 1.78 mg/kg i.v.
# Procedure: Permanent middle cerebral artery occlusion for modelling ischemic stroke and treatment with Yoda. Balb-c mice were subjected to permanent middle cerebral artery occlusion (pMCAo). The anaesthesia was induced by 5% isoflurane in 30% oxygen and 70% nitrogen as a carrier gas and maintained with 2% isoflurane during the surgical operation. The temperature was kept constant (37 ±1° C.) using the heating blanket connected to the rectal probe (Harvard apparatus, PanLab, Barcelona, Spain). The temporal muscle was detached from the scull and a hole (1 mm of diameter) was drilled to temporal bone. After removing the dura the exposed left MCA was lifted and occluded using a thermocoagulator (Aaron Medical Industries Inc., Clearwater, Fla., USA). […]
# Lesion size measurement. The lesion volume was measured in vivo at 24 h and 72 h post ischemia by magnetic resonance imaging (MRI) using a vertical 9.4 T Oxford NMR 400 magnet (Oxford Instrument PLC, Abington, UK). […] Multislice T2-weighted images (repetition time 3000 ms, echo time 40 ms, matrix size 128×256, field of view 19.2×19.2 mm^2, slice thickness 0.8 mm and number of slices 12) were taken and the obtained images were analyzed with in-house made Aedes software under the Matlab environment (Math-works, Natick, Mass., USA).
# [2] = biological target: T1, Piezo channels in red blood cells (Mus musculus, UniProt E2JF22); assay: Red blood cell (RBC) Ca2+ flux by flow cytometry; format: cell-based; settings: 10 uM Yoda1, 17-23 weeks of age
# T1 construct: from tissue; host or cells: red blood cells from blood of 5xFAD transgenic mice and wild-type controls
# T1 sequence (E2JF22 whole entry): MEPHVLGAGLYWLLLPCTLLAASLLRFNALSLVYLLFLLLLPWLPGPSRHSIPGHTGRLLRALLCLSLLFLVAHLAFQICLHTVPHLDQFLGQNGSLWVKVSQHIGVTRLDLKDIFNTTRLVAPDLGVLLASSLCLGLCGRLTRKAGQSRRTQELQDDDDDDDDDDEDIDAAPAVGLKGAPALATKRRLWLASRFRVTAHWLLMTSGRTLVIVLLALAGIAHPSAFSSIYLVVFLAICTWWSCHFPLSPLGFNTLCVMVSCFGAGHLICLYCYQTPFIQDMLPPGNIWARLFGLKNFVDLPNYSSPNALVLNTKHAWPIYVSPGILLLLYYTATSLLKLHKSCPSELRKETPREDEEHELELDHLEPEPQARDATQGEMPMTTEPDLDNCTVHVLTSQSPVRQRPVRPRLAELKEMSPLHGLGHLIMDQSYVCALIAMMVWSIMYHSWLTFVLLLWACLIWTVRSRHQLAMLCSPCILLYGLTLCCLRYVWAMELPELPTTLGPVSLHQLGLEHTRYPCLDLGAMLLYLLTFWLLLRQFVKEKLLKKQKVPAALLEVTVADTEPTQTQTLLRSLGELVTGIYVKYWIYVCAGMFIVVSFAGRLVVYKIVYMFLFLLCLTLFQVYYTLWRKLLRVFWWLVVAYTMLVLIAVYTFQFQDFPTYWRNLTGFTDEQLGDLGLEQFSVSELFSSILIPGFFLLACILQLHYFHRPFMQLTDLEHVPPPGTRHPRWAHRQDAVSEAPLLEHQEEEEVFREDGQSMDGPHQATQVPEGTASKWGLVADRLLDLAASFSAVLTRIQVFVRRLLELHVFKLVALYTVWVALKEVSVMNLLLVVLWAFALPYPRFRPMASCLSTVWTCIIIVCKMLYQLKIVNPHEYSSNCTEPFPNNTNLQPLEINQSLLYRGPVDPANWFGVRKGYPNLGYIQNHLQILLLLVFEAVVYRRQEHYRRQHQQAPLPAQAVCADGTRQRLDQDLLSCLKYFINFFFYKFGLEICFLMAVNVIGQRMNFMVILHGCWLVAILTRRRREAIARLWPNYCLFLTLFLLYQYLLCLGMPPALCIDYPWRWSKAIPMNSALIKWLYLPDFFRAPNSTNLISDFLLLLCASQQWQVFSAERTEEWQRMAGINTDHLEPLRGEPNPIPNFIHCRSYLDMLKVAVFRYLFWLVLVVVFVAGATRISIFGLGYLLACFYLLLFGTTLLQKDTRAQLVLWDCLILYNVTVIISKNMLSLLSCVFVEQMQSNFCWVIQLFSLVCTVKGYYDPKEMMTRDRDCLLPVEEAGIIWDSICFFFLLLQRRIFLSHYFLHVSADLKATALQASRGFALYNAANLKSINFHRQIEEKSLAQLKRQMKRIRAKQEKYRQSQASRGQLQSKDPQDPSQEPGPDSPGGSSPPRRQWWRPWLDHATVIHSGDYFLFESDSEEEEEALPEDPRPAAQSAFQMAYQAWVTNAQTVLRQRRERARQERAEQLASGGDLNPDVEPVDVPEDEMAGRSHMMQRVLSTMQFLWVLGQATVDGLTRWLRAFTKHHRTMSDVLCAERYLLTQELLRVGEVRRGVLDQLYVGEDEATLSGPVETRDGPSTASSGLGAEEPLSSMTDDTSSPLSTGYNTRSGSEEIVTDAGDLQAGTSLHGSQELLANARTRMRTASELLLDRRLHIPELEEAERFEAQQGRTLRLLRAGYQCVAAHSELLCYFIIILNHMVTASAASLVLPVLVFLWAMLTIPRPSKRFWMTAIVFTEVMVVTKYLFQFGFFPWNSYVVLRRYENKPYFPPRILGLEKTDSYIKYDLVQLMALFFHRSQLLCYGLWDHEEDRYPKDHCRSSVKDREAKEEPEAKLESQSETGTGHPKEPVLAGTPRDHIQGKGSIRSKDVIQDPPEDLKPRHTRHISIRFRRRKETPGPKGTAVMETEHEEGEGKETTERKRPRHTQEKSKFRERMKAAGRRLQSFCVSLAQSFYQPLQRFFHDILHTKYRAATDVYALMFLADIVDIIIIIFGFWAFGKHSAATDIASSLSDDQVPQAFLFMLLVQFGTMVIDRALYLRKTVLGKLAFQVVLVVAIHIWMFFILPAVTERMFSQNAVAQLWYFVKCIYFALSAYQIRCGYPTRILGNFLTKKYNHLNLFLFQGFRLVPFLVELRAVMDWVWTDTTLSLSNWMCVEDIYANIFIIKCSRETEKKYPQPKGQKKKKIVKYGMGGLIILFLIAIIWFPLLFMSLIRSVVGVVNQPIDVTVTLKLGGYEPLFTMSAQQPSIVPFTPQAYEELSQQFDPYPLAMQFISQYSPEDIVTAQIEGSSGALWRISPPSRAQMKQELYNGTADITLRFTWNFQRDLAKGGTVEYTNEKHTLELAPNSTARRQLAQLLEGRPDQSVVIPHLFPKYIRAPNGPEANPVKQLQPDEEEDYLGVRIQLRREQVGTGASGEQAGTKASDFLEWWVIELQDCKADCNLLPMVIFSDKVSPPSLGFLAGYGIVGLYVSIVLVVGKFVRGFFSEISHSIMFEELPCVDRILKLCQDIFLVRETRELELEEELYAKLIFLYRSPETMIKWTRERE
# Procedure: The blood samples (50-100 μl) were collected from 5xFAD mice at different ages (13-15 weeks, 15-17 weeks, 17-19 weeks, 19-21 weeks and 21-23 weeks of age) for analysis of RBC Ca2 flux. Shortly, the blood samples were collected in Eppendorf tubes with sodium citrate to prevent coagulation. Then the samples were filtered through 100 μm filters to remove possible contaminants and aggregates, followed by two times wash with PBS (5 mins, 300g, RT) to remove plasma. 50 μl of red blood cells were transferred to dean tube and resuspended in 200 μl PBS (250 μl total volume of cell suspension). 250 μl of Fluo4 stock solution was added and cells were incubated for 30 minutes at 37° C. in dark. […] The Ca2+ flux was recorded by CytoFlex at high 60 μl/min flow rate. Recording was started at 20 sec run after the flow rate is stabilized, After 20 sec recording (baseline fluorescence), the Yoda1 at final concentration 10 μM was applied, at 4 min 20 sec time point (4 minutes after Yoda1 is added) ionomycin at 10 μM final concentration is added as positive control and sample is continued running until 6 min were up. Mean fluorescence intensity was measured using gates at different time points—baseline (before application of Yoda1 10 μM), at 1 min, 2 min, 3 min, at 4 min of recording. […]
# The samples were recorded for 6 minutes. […]
smiles,measurement,setting,value
Clc1cccc(Cl)c1CSc1nnc(-c2cnccn2)s1 [Yoda1],lesion size measured with MRI,"[1]; 1 DPI and 3 DPI, versus vehicle",significantly smaller lesion size
same,ability to sense adhesive patches post stroke (adhesive removal test),[1]; ischemic mice,no apparent deficits
same,"Yoda1 elicited calcium responses in red blood cells, TG 5xFAD versus age-matched WT",[2],significantly lower
